Measurements as given in the supplement of paper PMC10307832.

Key:
Experiment in all cases: relative viability (nuclei count vs DMSO), 5 days (fraction); higher = more cells survive
KN-93 + Trametinib = compound: CN(C/C=C/C1=CC=C(C=C1)Cl)CC2=CC=CC=C2N(CCO)S(=O)(=O)C3=CC=C(C=C3)OC [KN-93] + CC(=O)Nc1cccc(-n2c(=O)n(C3CC3)c(=O)c3c(Nc4ccc(I)cc4F)n(C)c(=O)c(C)c32)c1 [Trametinib] (partner 0.02 µM)
Procedure, shortened: (§1)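 Lung cancer cell lines, seeded in 1536-well plates, were treated the following day by pin tool with a single drug or with five library-drug doses (not always all listed) in √10 steps on top of a fixed anchor-drug dose. Cells were fixed and nuclei stained in one step after 5 days, and nuclei were counted. Relative viability is the nuclei count for treated wells divided by that for vehicle wells, reported as medians of duplicate plates.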

KN-93 + Palbociclib = compound: CN(C/C=C/C1=CC=C(C=C1)Cl)CC2=CC=CC=C2N(CCO)S(=O)(=O)C3=CC=C(C=C3)OC [KN-93] + CC(=O)c1c(C)c2cnc(Nc3ccc(N4CCNCC4)cn3)nc2n(C2CCCC2)c1=O [Palbociclib] (partner 0.5 µM)
Procedure, shortened: as §1

KN-93 + Tozasertib = compound: CN(C/C=C/C1=CC=C(C=C1)Cl)CC2=CC=CC=C2N(CCO)S(=O)(=O)C3=CC=C(C=C3)OC [KN-93] + Cc1cc(Nc2cc(N3CCN(C)CC3)nc(Sc3ccc(NC(=O)C4CC4)cc3)n2)n[nH]1 [Tozasertib] (partner 0.1 µM)
Procedure, shortened: as §1

KN-93 + Dasatinib = compound: CN(C/C=C/C1=CC=C(C=C1)Cl)CC2=CC=CC=C2N(CCO)S(=O)(=O)C3=CC=C(C=C3)OC [KN-93] + Cc1nc(Nc2ncc(C(=O)Nc3c(C)cccc3Cl)s2)cc(N2CCN(CCO)CC2)n1 [Dasatinib] (partner 0.075 µM)
Procedure, shortened: as §1

KN-93 + AZD7762 = compound: CN(C/C=C/C1=CC=C(C=C1)Cl)CC2=CC=CC=C2N(CCO)S(=O)(=O)C3=CC=C(C=C3)OC [KN-93] + NC(=O)Nc1cc(-c2cccc(F)c2)sc1C(=O)N[C@H]1CCCNC1 [AZD7762] (partner 0.2 µM)
Procedure, shortened: as §1

| Cell Line | relative viability (KN-93 + Trametinib; first compound 0.08 µM) | relative viability (KN-93 + Trametinib; first compound 0.253 µM) | relative viability (KN-93 + Trametinib; first compound 2.53 µM) | relative viability (KN-93 + Trametinib; first compound 8 µM) | relative viability (KN-93 + Palbociclib; first compound 0.08 µM) | relative viability (KN-93 + Palbociclib; first compound 0.253 µM) | relative viability (KN-93 + Palbociclib; first compound 2.53 µM) | relative viability (KN-93 + Palbociclib; first compound 8 µM) | relative viability (KN-93 + Tozasertib; first compound 0.08 µM) | relative viability (KN-93 + Tozasertib; first compound 0.253 µM) | relative viability (KN-93 + Tozasertib; first compound 2.53 µM) | relative viability (KN-93 + Tozasertib; first compound 8 µM) | relative viability (KN-93 + Dasatinib; first compound 0.08 µM) | relative viability (KN-93 + Dasatinib; first compound 0.253 µM) | relative viability (KN-93 + Dasatinib; first compound 2.53 µM) | relative viability (KN-93 + Dasatinib; first compound 8 µM) | relative viability (KN-93 + AZD7762; first compound 0.08 µM) | relative viability (KN-93 + AZD7762; first compound 0.253 µM) | relative viability (KN-93 + AZD7762; first compound 2.53 µM) | relative viability (KN-93 + AZD7762; first compound 8 µM) |
| --- | --- | --- | --- | --- | --- | --- | --- | --- | --- | --- | --- | --- | --- | --- | --- | --- | --- | --- | --- | --- |
| LOU-NH91 | 0.789 | 0.677 | 0.822 | 0.716 | 0.542 | 0.562 | 0.56 | 0.512 | 0.618 | 0.663 | 0.586 | 0.477 | 0.504 | 0.532 | 0.604 | 0.458 | 0.731 | 0.659 | 0.802 | 0.623 |
| BEN | 1.08 | 1.19 | 1.18 | 0.67 | 0.482 | 0.448 | 0.523 | 0.465 | 0.525 | 0.529 | 0.489 | 0.531 | 0.307 | 0.319 | 0.307 | 0.266 | 0.771 | 0.661 | 0.678 | 0.442 |
| NCI-H441 | – | 0.422 | 0.401 | 0.177 | – | 0.171 | 0.185 | 0.147 | 0.639 | 0.806 | 0.553 | 0.435 | 0.758 | 0.639 | 0.617 | 0.458 | – | 1.36 | 1.19 | 1.06 |
| NCI-H1915 | 0.304 | 0.339 | 0.281 | 0.247 | 0.536 | 0.537 | 0.513 | 0.438 | 0.388 | 0.446 | 0.413 | 0.308 | 0.354 | 0.343 | 0.305 | 0.225 | 0.67 | 0.735 | 0.632 | 0.671 |
| ChaGo-K-1 | 0.906 | 1.03 | 0.79 | 0.785 | 0.899 | 1.02 | 0.946 | 0.829 | 0.234 | 0.232 | 0.243 | 0.2 | 0.555 | 0.662 | 0.534 | 0.341 | 0.797 | 0.928 | 0.934 | 0.713 |
| NCI-H1755 | 0.717 | 0.827 | 0.76 | 0.699 | 0.478 | 0.462 | 0.45 | 0.455 | 0.625 | 0.604 | 0.584 | 0.468 | 0.392 | 0.407 | 0.384 | 0.255 | 0.392 | 0.411 | 0.444 | 0.407 |
| LK-2 | 0.715 | 0.867 | 0.929 | 0.78 | 0.775 | 1.12 | 0.834 | 0.559 | 0.212 | 0.191 | 0.163 | 0.158 | 0.248 | 0.315 | 0.288 | 0.417 | 0.419 | 0.366 | 0.428 | 0.3 |
| EKVX | 0.359 | 0.285 | 0.341 | 0.279 | 0.433 | 0.34 | 0.365 | 0.265 | 0.378 | 0.48 | 0.369 | 0.301 | 0.42 | 0.429 | 0.358 | 0.389 | 0.623 | 0.515 | 0.73 | 0.354 |
| HCC-78 | 0.708 | 0.68 | 0.808 | 0.711 | 0.47 | 0.513 | 0.446 | 0.427 | 0.392 | 0.369 | 0.369 | 0.382 | 0.336 | 0.459 | 0.373 | 0.344 | 0.623 | 0.506 | 0.622 | 0.653 |
| PC-3 [JPC-3] | 0.703 | 0.533 | 0.674 | 0.608 | 0.49 | 0.476 | 0.591 | 0.569 | 0.905 | 0.957 | 0.922 | 0.813 | 0.941 | 1.11 | 1.03 | 0.673 | 0.813 | 0.757 | 0.781 | 0.714 |
| NCI-H322M | 0.478 | 0.575 | 0.488 | 0.442 | 0.481 | 0.503 | 0.494 | 0.445 | 0.505 | 0.502 | 0.524 | 0.489 | 0.256 | 0.25 | 0.26 | 0.204 | 0.549 | 0.53 | 0.555 | 0.51 |
| NCI-H1355 | 0.436 | 0.324 | 0.375 | 0.343 | 0.427 | 0.342 | 0.436 | 0.332 | 0.51 | 0.451 | 0.481 | 0.31 | 0.588 | 0.551 | 0.695 | 0.503 | 0.822 | 0.694 | 0.826 | 0.703 |
| CAL-12T | 0.345 | 0.35 | 0.289 | 0.28 | 0.37 | 0.52 | 0.232 | 0.3 | 0.299 | 0.354 | 0.324 | 0.176 | 0.358 | 0.286 | 0.509 | 0.139 | 0.56 | 0.628 | 0.667 | 0.399 |
| NCI-H2126 | 0.468 | 0.453 | 0.593 | 0.466 | 0.341 | 0.333 | 0.362 | 0.354 | 0.858 | 0.805 | 0.862 | 0.554 | 0.565 | 0.468 | 0.578 | 0.364 | 0.939 | 1.01 | 1.03 | 0.974 |
| RERF-LC-KJ | 0.924 | 0.869 | 0.83 | 0.624 | 1.03 | 1 | 1.16 | 0.8 | 0.448 | 0.477 | 0.405 | 0.271 | 0.664 | 0.788 | 0.672 | 0.277 | 0.707 | 0.898 | 1 | 0.753 |
| NCI-H1944 | 0.419 | 0.385 | 0.432 | 0.328 | 0.368 | 0.328 | 0.327 | 0.243 | 0.269 | 0.221 | 0.257 | 0.218 | 0.235 | 0.22 | 0.213 | 0.154 | 0.527 | 0.433 | 0.585 | 0.579 |
